Experimental data published in patent publication US20250361214A1, “TRIAZINE LIPIDS, LIPID SYNTHESIS, AND METHODS FOR INHIBITING CANONICAL NFKB TRANSCRIPTIONAL ACTIVITY” (University of Kentucky Research Foundation, priority 2022, published 2025).
pIC50: −log10 of the molar value.

Legend:
canonical NFKB = test: THP-1-Blue NFKB reporter (SEAP) assay; format: cell-based, human
plasmid DNA = test: Gel shift assay using plasmid DNA; format: binding; details: 1:1 molar ratio cationic lipid and DOPE, agarose gel
Experimental: Gel Shift Assays Using Plasmid DNA. Nanoparticles consisting of a 1:1 molar ratio of cationic lipid/DOPE were rehydrated in a 20 mM HEPES solution at pH 4. […] The gels were visualized and photographed using a Bio-Rad ChemiDoc XR system using the manufacturer's software.

BALB/c mice [1] = test: Anti-hAAT antibody titers and IgG subclass ratios; format: in vivo, mouse
Experimental: To assess the presence of antibodies toward hAAT, 50 μL of hAAT (OriGene #RG202082) was plated at 2 μg/mL in carbonate buffer, pH 9.7, on a 96 well high binding plate (Greiner #82050-720) and incubated overnight at 4° C. The next day, the plates were washed with PBS containing 0.1% Tween-20 (PBS-T) and blocked for 1 hour with PBS-C at 37° C. After blocking, serum samples were plated at dilutions ranging from 1:100 to 1:1,000,000 and incubated at 37° C. for 2 hours. Secondary antibody (goat anti-mouse IgG HRP; Invitrogen #16066) diluted 1:2000 was applied for 30 min at 37° C., followed by a 30 min. incubation with tetramethylbenzidine (Rockland). Absorbance at 450 nm was recorded using a BioTek Synergy H1 microplate reader. Reciprocal endpoint titers were determined by plotting A450 values versus known dilutions, calculating the slope of that line, and dividing the slope by two times the average of the blank (no serum) wells.
Anti-hAAT IgG subclass ratios were assessed as described above, using a single 1:100 sample dilution and the following detection antibodies: goat anti-mouse IgG1-HRP (Abcam ab98693) at 1:10,000, IgG2a-HRP (Abcam ab98698) at 1:5000, IgG2b-HRP (Abcam ab98703) at 1:10,000 and IgG3 (Jackson 115-035-209) at 1:5000. Subclass ratios were calculated by dividing the absorbance of each subclass by that of IgG1 for each individual mouse.

C57BL/6J mice = test: In vivo toxicity of cationic lipid nanoparticles (ALT, IL-6, SCr, mortality)
BALB/c mice [2] = test: In vivo hAAT transfection efficiency, serum ELISA and ALT; design: species or system mouse; details: LPs (50% cationic lipid, 50% DOPE), 10,000 ng hAAT plasmid DNA i.p., 72 hours
Experimental: To assess in vivo hAAT transfection efficiency, mice were administered 200 μL nanoparticles or PBS vehicle i.p. at the doses indicated in the figure legend. Seventy-two hours after injection the mice were bled again for assessment of ALT levels and hAAT expression. hAAT levels were determined via ELISA using serum diluted 1:1 in PBS containing 0.05% casein (PBS-C; 124250; Beantown Chemical), as described previously.^38

[3] = Characterization of nanoparticles (size, zeta potential, DNA encapsulation), Example 2; format: physicochemical; details: LNPs made with the cationic lipid
Experimental: The concentration of DNA in LNPs after dialysis was quantified using an AccuClear® Ultra High Sensitivity dsDNA Quantification Kit (Biotium #31027) and quantified on a BioTek Synergy H1 plate reader. Encapsulation efficiencies were determined by comparing the amount of DNA in the LNP solution vs. the DNA solution used to make them, after disrupting the LNPs with 0.5% Cl2E10 (Abcam #ab146563) and adjusting for volume differences (i.e.: excess volume added during dialysis and dilution volume during ethanol mixture).

[4] = tested on: bone marrow derived macrophages; test: in vitro; format: cell-based; details: female, C57BL/6J, mouse, 24 h
Experimental: (§1) Cell Culture of Bone Marrow-Derived Macrophages. […] After 7 days, the cells were transferred to tissue culture 96 well plates (Corning) at a density of 100,000 in 20 μL of medium and allowed to settle overnight for subsequent assays.
(§2) Lactate Dehydrogenase Release (LDH) Toxicity Assay. For determination of cytotoxicity, mature bone marrow-derived macrophages (BMDM) were treated with 20 μL of the lipids (concentrations denoted in figure legend) diluted in 20 mM HEPES buffer, with HEPES buffer as negative control and 10% Triton X-100 as positive control. After 24 hours, the 96 well plates were centrifuged at 200×g for 5 minutes to remove debris and 100 μL of media was transferred to an untreated flat-bottom 96 well plate. Next, 100 μL of LDH reaction reagent purchased from Cayman Chemical (Ann Arbor, MI) was added to each and allowed to sit for 30 minutes at 37° C. Absorbance at 490 and 680 nm were measured using a BioTek Synergy H1 plate reader and the data were processed using Microsoft Excel. Mean values from triplicates are shown for one of two independent experiments.

in vitro = format: cell-based; details: female, C57BL/6J, mouse
Experimental: as §1, §2

HeLa cells = test: Transfection of luciferase plasmid; format: cell-based
Experimental: Transfection of Luciferase Plasmid and Cell Viability. HeLa cells cultured in EMEM (ATCC) supplemented with 10% fetal bovine serum were transferred to a 96 well plate, in quadruplicate, at a density of 20,000 cells per well and incubated for 24 hours at 37° C. in 5% CO2. Liposomes made with a 1:1 ratio of DOPE and TZ lipid were added to 200 ng pGL3 Luciferase Reporter Vector (Promega) at N:P ratios of 2.5, 5 and 10, and incubated at 37° C. for 10 minutes before being diluted in 100 μL of nonsupplemented EMEM and added to the cells. Following a four hour incubation at 37° C., the media was changed, and the cells were incubated for another twenty hours, at which point the cells were lysed with a cell culture lysis reagent at pH 7.8 composed of 25 mM Tris-phosphate buffer, 0.7 g L^−1 1,2-diaminocyclohexane, 10% glycerol, 1% Triton X-100, and 1% protease inhibitor cocktail (Millipore). Total protein content was determined with a bicinchoninic acid assay (G-Biosciences) and luciferase protein expression was quantified by a luciferase assay (Promega). Cell viability was assessed using a Cell Titer Blue assay kit (Promega) based on the manufacturer's instructions. In each of the three independent experiments performed, transfection was compared with cells treated with Lipofectamine 3000 (Thermo), following the manufacturer's instructions, and with DNA treated cells.

[5] = Size and charge determination of nanoparticles (Zetasizer Nano ZS), Example 1; format: physicochemical
Description: Size and Charge Determination.

[6] = Differential scanning calorimetry, transition temperature (Tm) of lipids; format: physicochemical; details: liposomes of pure lipid, 10 mM in 20 mM HEPES, DSC
Experimental: Differential Scanning calorimetery. The transition temperature (Tm) of the lipids was determined using a multicell differential scanning calorimeter (TA Instruments). Liposomes were made with triazine lipids at a concentration of 10 mM in 20 mM HEPES buffer. These were heated to 60° C. and sonicated until the solution was translucent. For Tm determination, 250 μL of the liposome solution was transferred into reusable hastelloy ampoules while 250 μL of the HEPES solution was transferred to the third ampoule, leaving the reference ampoule empty. […] Data was collected over a range of 10-110° C. at a rate of 2° C. min-1 in a heat-cool-heat cycle. After the run was complete, the CpCalc 2.1 software package was used to convert the raw data into a molar heat capacity and the data from the second heating cycle were processed using Microsoft Excel.

murine macrophages = details: incubation of murine macrophages; cited from earlier work
cIAP = details: cited from earlier work
[7] = 20 mM lipid, i.p., versus baseline

In the case of `CCCCCCCC/C=C\CCCCCCCC(=O)OC[C@@H](COP(=O)(O)OCCN)OC(=O)CCCCCCC/C=C\CCCCCCCC` (stereo in doubt) [DOPE, 1,2-dioleoyl-sn-glycero-3-phosphoethanolamine, reference compound], the “canonical NFKB inhibition” value (canonical NFKB; THP-1-Blue cells stimulated with TNFα) was “exhibited no activity” and the “N:P ratio at which nucleic acid is complexed / migration inhibited” value (plasmid DNA) was “unable to prevent migration”.
For `CCCCCCCC/C=C\CCCCCCCC(=O)OCC(C[N+](C)(C)C)OC(=O)CCCCCCC/C=C\CCCCCCCC.[Cl-]` (stereo not shown) [DOTAP, 1,2-dioleoyl-3-trimethylammonium propane, reference compound], the pIC50 (canonical NFKB; Homo sapiens, 24 h, read-out: IC50, canonical NFKB inhibition) was 4.55, the “increase of anti-hAAT titers” value (BALB/c mice [1]; 25 μg hAAT protein administered with 1 mM lipid, day 14) was 10 fold and the “anti-hAAT IgG titers” value (BALB/c mice [1]; transgene delivery, 10 μg hAAT DNA, day 14, versus untreated mice) was “significantly higher anti-hAAT titers than untreated mice”. The “Th1/Th2 response (ratios of IgG2a, 2b, and 3 over IgG1)” value (BALB/c mice [1]; transgenic hAAT delivery with LPs) was “balanced Th1/Th2 response”, the “interleukin 6 (IL-6)” value (C57BL/6J mice; [7]) was “neither these nor the IL-6 elevation in DOTAP-treated mice reached statistical significance” and the “average hAAT levels in serum” value (BALB/c mice [2]) was 3 ng/mL. The “encapsulation of DNA (general)” value [3] was 70-80%.
In the case of `CCCCCCCCCCCCN(CCCCCCCCCCCC)c1nc(NCCCN(C)C)nc(NCCCN(C)C)n1` [Lipid 9], the LD50 [4] was 337 mM, the IC50 at 24 h (in vitro) was 337 µM and the “plasmid transfection (luciferase)” value (HeLa cells; TZ lipid:DOPE 1:1, compared with naked plasmid) was “better efficacy than the lipids with C18 tails”. The luciferase expression (HeLa cells; average, lipid 9:DOPE 1:1 at an N:P ratio of 5, 200 ng pGL3) was 462 RLU per mg, the PDI ([5]; nanoparticles of pure lipid (Table 1)) was 0.24 ± 0.00 and the Size ([5]; nanoparticles of pure lipid, 1 mM, 25° C. (Table 1)) was 159 ± 1 nm. The Charge ([5]; zeta potential, nanoparticles of pure lipid (Table 1)) was 45 ± 2 mV, the deaths (C57BL/6J mice; 10 mM lipid, i.p.) was “one mouse dying” and the “interleukin 6 (IL-6)” value (C57BL/6J mice; 10 mM lipid, i.p.) was “statistically significant increases”. For the same molecule, the “serum alanine aminotransferase (ALT)” value (C57BL/6J mice; 10 mM lipid, i.p.) was “statistically significant increases”, the deaths (C57BL/6J mice; 20 mM lipid, i.p.) was “three of the ten mice in this group died” and the “interleukin 6 (IL-6)” value (C57BL/6J mice; [7]) was “significant elevations”. For the same molecule, the “serum alanine aminotransferase (ALT)” value (C57BL/6J mice; [7]) was “significant elevations”, the “serum creatinine (SCr)” value (C57BL/6J mice; [7]) was “elevated but did not reach statistical significance” and the “in vivo toxicity (overall)” value (C57BL/6J mice; 100 μL cationic lipid nanoparticles i.p.) was “confers significant toxicity and mortality”. For the same molecule, the “visual examination of internal organs” value (C57BL/6J mice; 72 hours, 10 and 20 mM) was “significant inflammation and swelling throughout the intestines and abdominal cavity” and the Tm [6] was under 10 °C.
For `CC[C@H]1OC(=O)[C@H](C)[C@@H](O[C@H]2C[C@@](C)(OC)[C@@H](O)[C@H](C)O2)[C@H](C)[C@@H](O[C@@H]2O[C@H](C)C[C@H](N(C)C)[C@H]2O)[C@](C)(O)C[C@@H](C)CN(C)[C@H](C)[C@@H](O)[C@]1(C)O` [azithromycin], the IKKβ expression (murine macrophages) is listed as “increases the overall expression of IKβ kinase (IKKB)”.
In the case of `CC[C@H](NC(=O)[C@H](C)NC)C(=O)N1C[C@@H](O)C[C@H]1Cc1c(-c2[nH]c3cc(F)ccc3c2C[C@@H]2C[C@H](O)CN2C(=O)[C@H](CC)NC(=O)[C@H](C)NC)[nH]c2cc(F)ccc12` [birinapant], the pIC50 (cIAP) is listed as 7.30.
